Like-named read-outs stand apart in the source and are kept apart here.
Experiments:
[1] = target: T1, Gastrin receptor (gastric glands) (Cavia porcellus, UniProt H0VZC5); test: Gastrin Receptor Binding in Guinea Pig Gastric Glands; design: species or system guinea pig (male Hartley); settings: 25° C., 30 minutes
T1 construct: The washed guinea pig gastric glands prepared as above were resuspended; from tissue; host or cells: guinea pig gastric mucosal glands (male Hartley)
T1 sequence (H0VZC5 1-426): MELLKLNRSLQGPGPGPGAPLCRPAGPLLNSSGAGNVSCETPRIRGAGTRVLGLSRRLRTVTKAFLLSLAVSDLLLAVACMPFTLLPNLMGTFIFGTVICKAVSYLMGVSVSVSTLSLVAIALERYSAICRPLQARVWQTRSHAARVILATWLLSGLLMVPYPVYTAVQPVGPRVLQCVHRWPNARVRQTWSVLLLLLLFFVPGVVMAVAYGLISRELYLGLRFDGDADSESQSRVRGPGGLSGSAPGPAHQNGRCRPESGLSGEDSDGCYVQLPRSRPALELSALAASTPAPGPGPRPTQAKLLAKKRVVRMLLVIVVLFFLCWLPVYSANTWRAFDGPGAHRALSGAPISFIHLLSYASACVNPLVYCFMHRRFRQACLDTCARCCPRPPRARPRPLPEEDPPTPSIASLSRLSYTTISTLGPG

CCK receptor (pancreas) = target: T2, CCK receptor (pancreas) (Rattus norvegicus, UniProt P30551); test: CCK Receptor Binding (Pancreas): inhibition of ^125 I-CCK-33 binding; design: species or system Male Sprague-Dawley rats; settings: rat pancreas membranes, ^125 I-CCK-33, 37° C., 30 minutes
T2 construct: The whole pancreas was dissected free of fat tissue and was homogenized; from tissue; host or cells: rat pancreas membranes (Sprague-Dawley)
T2 sequence (P30551 1-444): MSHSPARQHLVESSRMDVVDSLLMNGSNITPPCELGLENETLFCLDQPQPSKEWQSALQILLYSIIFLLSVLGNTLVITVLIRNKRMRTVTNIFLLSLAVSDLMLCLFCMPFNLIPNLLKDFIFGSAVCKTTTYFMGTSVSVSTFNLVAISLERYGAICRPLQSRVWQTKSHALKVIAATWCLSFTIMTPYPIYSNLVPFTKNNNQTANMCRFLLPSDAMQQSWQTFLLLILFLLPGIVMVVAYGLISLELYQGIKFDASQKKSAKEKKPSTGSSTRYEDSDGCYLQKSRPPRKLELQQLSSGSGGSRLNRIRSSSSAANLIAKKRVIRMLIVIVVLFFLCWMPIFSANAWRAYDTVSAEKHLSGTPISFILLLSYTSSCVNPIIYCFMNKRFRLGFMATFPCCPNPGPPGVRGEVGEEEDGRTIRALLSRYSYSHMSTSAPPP
Outline: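 Rat (male Sprague-Dawley) pancreatic membranes in 50 mM Tris HCl pH 7.7 with DTT, bacitracin, PMSF and o-phenanthroline; ^125I-Bolton Hunter-labelled CCK-33 as radioligand. Incubation 30 min at 37° C, separation by centrifugation, pellet gamma-counted; Scatchard analysis by diluting ^125I-CCK-33 with increasing CCK-33.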

[2] = target: T3, CCK receptor (brain, cerebral cortex) (Cavia porcellus, UniProt H0VZC5); test: biochemical; assay type: binding, Male Hartley guinea pigs; settings: guinea pig cerebral cortex, ^125 I-CCK-33, 25° C., 2 hours
T3 construct: Cerebral cortex was dissected and used as a receptor source; from tissue; host or cells: guinea pig cerebral cortex membranes (male Hartley)
T3 sequence (H0VZC5 1-426): T1 sequence (H0VZC5 1-426)
Outline: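 Guinea pig cerebral cortex homogenate as receptor source, with radiolabeled CCK-33 in HEPES buffer containing MgCl2, bacitracin, EGTA and 0.4% BSA. Incubation 2 h at 25°C; bound ligand pelleted by centrifugation and gamma-counted.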

[3] = IC50 ^125 I-Gastrin Gastric Glands
[4] = read-out: IC50 ^125 I-CCK Pancreas
[5] = ^125 I-gastrin, read-out: IC50 ^125 I-Gastrin Gastric Glands
[6] = read-out: IC50 ^125 I-CCK Brain

| SMILES | IC50 [1, 3] [nM] | IC50 (CCK receptor (pancreas); [4]) [nM] | IC50 ([2]; IC50 ^125 I-CCK Brain) [nM] | IC50 [1, 5] [nM] | IC50 (CCK receptor (pancreas); IC50 ^125 I-CCK Pancreas) [nM] | IC50 [2, 6] [nM] |
| --- | --- | --- | --- | --- | --- | --- |
| CCOC(=O)CCN1C(=O)C(NC(=O)Nc2ccc(Cl)cc2)N=C(c2ccccc2)c2ccccc21 (stereo not drawn) [Example 230, 3-((((4-Chlorophenyl)amino)carbonyl)amino)-2,3-dihydro-2-oxo-5-phenyl-1H-1,4-benzodiazepine-1-propanoic acid ethyl ester] | 35 | 490 | 5.1 | – | – | – |
| CN1C(=O)C(NC(=O)[C@@H](Cc2ccccc2)NC(=O)OC(C)(C)C)N=C(c2ccccc2F)c2ccccc21 (stereo partly drawn) [Example 231, (2-((5-(2-Fluorophenyl)-2,3-dihydro-1-methyl-2-oxo-1H-1,4-benzodiazepin-3-yl)amino)-2-oxo-1-(phenylmethyl)ethyl)-carbamic acid 1,1-dimethylethyl ester] | – | – | – | 2900 | 580 | 2700 |
| CN1C(=O)[C@@H](NC(=O)Nc2ccc(Cl)cc2)N=C(c2ccccc2)c2ccccc21 [Example 233] | – | 26 | 410 | 580 | – | – |
| CN1C(=O)[C@H](NC(=O)Nc2ccc(Cl)cc2)N=C(c2ccccc2)c2ccccc21 [Example 234, (R)-N-(4-Chlorophenyl)-N'-(2,3-dihydro-1-methyl-2-oxo-5-phenyl-1H-1,4-benzodiazepin-3-yl)-Urea] | – | 1100 | 5.5 | 12 | – | – |
| CN1CCN(C(=O)CN2C(=O)C(NC(=O)OCc3ccccc3)N=C(c3ccccc3)c3ccccc32)CC1 (stereo not drawn) [Example 235, (2,3-Dihydro-1-(2-(4-methyl-1-piperazinyl)-2-oxoethyl)-2-oxo-5-phenyl-1H-1,4-benzodiazepin-3-yl)-carbamic acid phenylmethyl ester] | – | – | – | 1400 | 29000 | 1700 |
| O=C(Nc1ccc(Cl)cc1)NC1N=C(c2ccccc2)c2ccccc2N(CC(=O)N2CCCC2)C1=O (stereo not drawn) [Example 236, 1-((3-((((4-Chlorophenyl)amino)carbonyl)amino)-2,3-dihydro-2-oxo-5-phenyl-1H-1,4-benzodiazepin-1-yl)acetyl)pyrrolidine] | – | 520 | – | 0.5 | – | 0.28 |
| CN1CCN(C(=O)CN2C(=O)C(NC(=O)Nc3ccc(Cl)cc3)N=C(c3ccccc3)c3ccccc32)CC1 (stereo not drawn) [Example 237, 1-((3-((((4-Chlorophenyl)amino)carbonyl)amino)-2,3-dihydro-2-oxo-5-phenyl-1H-1,4-benzodiazepin-1-yl)acetyl)-4-methylpiperazine] | – | 1200 | – | 2.6 | – | 8 |
| CN1C(=O)C(NC(=O)c2ccsc2)N=C(c2ccccc2F)c2ccccc21 (stereo not drawn) [Example 238, N-(5-(2-Fluorophenyl)-2,3-dihydro-1-methyl-2-oxo-1H-1,4-benzodiazepin-3-yl)-3-thiophenecarboxamide] | 11000 | 28 | 26000 | – | – | – |
| CCOC(=O)CN1C(=O)C(NC(=O)Cc2ccc(Cl)cc2)N=C(c2ccccc2)c2ccccc21 (stereo not drawn) [Example 239, 3-(((4-Chlorophenyl)acetyl)amino)-2,3-dihydro-2-oxo-5-phenyl-1H-1,4-benzodiazepine-1-acetic acid ethyl ester] | – | – | – | 4.5 | 1700 | 38 |
| O=C(Cc1ccc(Cl)cc1)NC1N=C(c2ccccc2)c2ccccc2NC1=O (stereo not drawn) [Example 240, 4-Chloro-N-(2,3-dihydro-2-oxo-5-phenyl-1,4-benzodiazepin-3-yl)-benzeneacetamide] | – | – | – | 7000 | 1300 | 2900 |
| CCOC(=O)C(C)N1C(=O)C(NC(=O)OCc2ccccc2)N=C(c2ccccc2)c2ccccc21 (stereo not drawn) [Example 241, 2,3-Dihydro-alpha-methyl-2-oxo-5-phenyl-3-((phenylmethoxy)carbonyl)amino-1H-1,4-benzodiazepine-1-acetic acid ethyl ester] | – | – | – | 950 | 930 | 1400 |
| CCOC(=O)C(C)N1C(=O)C(NC(=O)OCc2ccccc2)N=C(c2ccccc2)c2ccccc21 (stereo not drawn) [Example 242] | – | – | – | 870 | 900 | 2300 |
| CC(C(=O)O)N1C(=O)C(NC(=O)OCc2ccccc2)N=C(c2ccccc2)c2ccccc21 (stereo not drawn) [Example 243, 2,3-Dihydro-alpha-methyl-2-oxo-5-phenyl-3-((phenylmethoxy)carbonyl)amino-1H-1,4-benzodiazepine-1-acetic acid] | – | – | – | 3600 | 680 | 2800 |
| CCN(CC)C(=O)C(C)N1C(=O)C(NC(=O)OCc2ccccc2)N=C(c2ccccc2)c2ccccc21 (stereo not drawn) [Example 244, (1-(2-(Diethylamino)-1-methyl-2-oxoethyl)-2,3-dihydro-2-oxo-5-phenyl-1H-1,4-benzodiazepin-3-yl)-carbamic acid phenylmethyl ester] | – | – | – | 500 | 950 | 740 |
| CN1C(=O)C(NC(=O)Oc2ccc([N+](=O)[O-])cc2)N=C(c2ccccc2F)c2ccccc21 (stereo not drawn) [Example 245, (5-(2-Fluorophenyl)-2,3-dihydro-1-methyl-2-oxo-1H-1,4-benzodiazepin-3-yl)-carbamic acid-4-nitrophenyl ester] | 12000 | – | 92000 | – | 7200 | – |
| COc1cccc(NC(=O)NC2N=C(c3ccccc3F)c3ccccc3N(C)C2=O)c1 (stereo not drawn) [Example 246, N-(5-(2-Fluorophenyl)-2,3-dihydro-1-methyl-2-oxo-1H-1,4-benzodiazepin-3-yl)-N'-(3-methoxyphenyl)-urea] | – | – | – | 2.4 | 1.9 | 2 |
| COc1cccc(NC(=O)NC2N=C(c3ccccc3)c3ccccc3N(C)C2=O)c1 (stereo not drawn) [Example 247, N-(2,3-Dihydro-1-methyl-2-oxo-5-phenyl-1H-1,4-benzodiazepin-3-yl)-N'-(3-methoxyphenyl)-urea] | – | 6.2 | 3 | 1.6 | – | – |
| Cc1ccc(S(=O)(=O)NC(=O)NC2N=C(c3ccccc3)c3ccccc3N(C)C2=O)cc1 (stereo not drawn) [Example 248, N-(((2,3-Dihydro-1-methyl-2-oxo-5-phenyl-1H-1,4-benzodiazepin-3-yl)amino)carbonyl)-4-methylbenzenesulfonamide] | – | – | – | 2200 | 20000 | 5300 |
| CN1C(=O)C(NC(=O)Nc2ccccc2)N=C(c2ccccc2)c2ccccc21 (stereo not drawn) [Example 250, N-(2,3-Dihydro-1-methyl-2-oxo-5-phenyl-1H-1,4-benzodiazepin-3-yl)-N'-phenylurea] | – | 8.3 | – | 9 | – | 32 |
| CN1C(=O)C(NC(=O)NCc2ccccc2)N=C(c2ccccc2)c2ccccc21 (stereo not drawn) [Example 251, N-(2,3-Dihydro-1-methyl-2-oxo-5-phenyl-1H-1,4-benzodiazepin-3-yl)-N'-phenylmethylurea] | – | 490 | – | 420 | – | 860 |
| Cc1ccc(NC(=O)NC2N=C(c3ccccc3)c3ccccc3N(C)C2=O)cc1 (stereo not drawn) [Example 252, N-(2,3-Dihydro-1-methyl-2-oxo-5-phenyl-1H-1,4-benzodiazepin-3-yl)-N'-(4-methylphenyl)-urea] | 3.5 | 57 | 6 | – | – | – |
| COc1ccc(NC(=O)NC2N=C(c3ccccc3)c3ccccc3N(C)C2=O)cc1 (stereo not drawn) [Example 253, N-(2,3-Dihydro-1-methyl-2-oxo-5-phenyl-1H-1,4-benzodiazepin-3-yl)-N'-(4-methoxvphenyl)-urea] | 45 | – | 20 | – | 160 | – |
| CN1C(=O)C(NC(=O)Nc2ccccc2Cl)N=C(c2ccccc2)c2ccccc21 (stereo not drawn) [Example 254, N-(2-Chlorophenyl)-N'-(2,3-dihydro-1-methyl-2-oxo-5-phenyl-1H-1,4-benzodiazepin-3-yl)-urea] | – | – | – | 110 | 0.9 | 320 |

From US4820834A, “Benzodiazepine analogs” (priority 1987, dated 1989)
